Source: patent publication US20020107414A1, “Method of prostaglandin synthesis” (priority 1993, published 2002)
Where two headings read alike, the source gives them in different places.

Columns and labels:
[1] = tested on: intraocular pressure in human eyes; settings: cited from earlier work
[2] = tested on: intraocular pressure (IOP); settings: rabbits, cited from earlier work
[3] = tested on: intraocular pressure (IOP); experiment: IOP reduction in cynomolgus monkeys with ocular hypertension produced by laser trabeculoplasty; format: in vivo; settings: for Percent IOP Reduction at Hours after Dose/Dose# 2/5: 2 hours after fifth dose; for Percent IOP Reduction at Hours after Dose/Dose# 4/5: 4 hours after fifth dose; for Percent IOP Reduction at Hours after Dose/Dose# 6/5: 6 hours after fifth dose; for Percent IOP Reduction at Hours after Dose/Dose# 16/4: 16 hours after fourth dose; for reduction of intraocular pressure (in words): at doses marginal or ineffective for other prostaglandins in published clinical studies
Method: The ability of certain compounds of the present invention to reduce intraocular pressure (IOP) was evaluated in cynomolgus monkeys with ocular hypertension produced by previous laser trabeculoplasty in the right eye. Animals had been trained to sit in restraint chairs and conditioned to accept experimental procedures without chemical restraint. IOP was determined with a pneumatonometer after light corneal anesthesia with dilute proparacaine. The test protocol included a treatment regimen consisting of 5 divided doses administered over a period of 2 and ½ days. Doses 2-5 were given 8, 24, 32 and 48 hours after the initial dose. Baseline IOP values were determined prior to treatment with the test formulation, and then IOP was determined 16 hours after the fourth dose, and 2, 4 and 6 hours after the fifth dose. Prostaglandin doses are micrograms of compound contained in each treatment. The two compounds tested are those previously identified as Compounds (II) and (IV).

For `CCCCC[C@H](O)/C=C/[C@H]1C(=O)C[C@H](O)[C@@H]1C/C=C\CCCC(=O)O` [PGD2], the “reduction of intraocular pressure in human eyes” value ([1]; 50 μg) is listed as 12% and the “maximum IOP reduction” value ([2]; 250 μg) is listed as “approximately 28%”.
For `CC(C)OC(=O)CCC/C=C\C[C@@H]1[C@@H](CC[C@@H](O)C2CCCCC2)[C@H](O)C[C@H]1Cl` [Compound (IV), (5Z)-(9R, 11R, 15R)-9-Chloro-15-cyclohexyl-11,15-dihydroxy-16,17,18,19,20-pentanor-5-prostenoic Acid Isopropyl Ester], the “Percent IOP Reduction at Hours after Dose/Dose# 2/5” value ([3]; PG dose 20 μg per treatment) was 30.1 ± 4.8%, the “Percent IOP Reduction at Hours after Dose/Dose# 4/5” value ([3]; PG dose 20 μg per treatment) was 22.4 ± 5.2% and the “Percent IOP Reduction at Hours after Dose/Dose# 6/5” value ([3]; PG dose 20 μg per treatment) was 19.3 ± 4.3%. The “Percent IOP Reduction at Hours after Dose/Dose# 16/4” value ([3]; PG dose 20 μg per treatment) was 13.9 ± 2.7% and the “reduction of intraocular pressure (in words)” value [3] was “significant reduction”.
In the case of `O=C(O)CCCCCCC1C(=O)NC(=O)N1CCC(O)C1CCCCC1` (stereo not shown) [BW245C], the “reduction of intraocular pressure in human eyes” value ([1]; 2.5 μg) is given as 10% and the “maximum IOP reduction” value ([2]; 25 μg) is given as roughly 22%.
In the case of `CC(C)(C)OC(=O)COC/C=C\C[C@@H]1[C@@H](CC[C@@H](O)C2CCCCC2)[C@H](O)C[C@H]1Cl` [Compound (II), (5Z)-(9R, 11R, 15R)-9-Chloro-15-cyclohexyl-11,15-dihydroxy-3-oxa-16,17,18,19,20-pentanor-5-prostenoic Acid t-Butyl Ester], the “reduction of intraocular pressure” value ([3]; 5 μg of compound) is reported as roughly 50%, the “Percent IOP Reduction at Hours after Dose/Dose# 2/5” value ([3]; PG dose 1 μg per treatment) is reported as 30.8 ± 4.7% and the “Percent IOP Reduction at Hours after Dose/Dose# 4/5” value ([3]; PG dose 1 μg per treatment) is reported as 26.4 ± 4.7%. The “Percent IOP Reduction at Hours after Dose/Dose# 6/5” value ([3]; PG dose 1 μg per treatment) was 24.9 ± 4.0%, the “Percent IOP Reduction at Hours after Dose/Dose# 16/4” value ([3]; PG dose 1 μg per treatment) was 22.3 ± 2.7% and the “Percent IOP Reduction at Hours after Dose/Dose# 2/5” value ([3]; PG dose 5 μg per treatment) was 47.5 ± 5.1%. The “Percent IOP Reduction at Hours after Dose/Dose# 4/5” value ([3]; PG dose 5 μg per treatment) was 43.7 ± 5.6%, the “Percent IOP Reduction at Hours after Dose/Dose# 6/5” value ([3]; PG dose 5 μg per treatment) was 36.5 ± 5.8% and the “Percent IOP Reduction at Hours after Dose/Dose# 16/4” value ([3]; PG dose 5 μg per treatment, lasered right eye, topical) was 38.3 ± 3.0%. The “reduction of intraocular pressure (in words)” value [3] was “significant reduction”.
